This note sets out measurements from patent US20060281687A1, “Cyclin groove inhibitors” (priority 2003, published 2006).

Non-standard residues stand in square brackets, D forms with d. Residues, ends and D or L forms follow the SMILES beside them. *: point of attachment. X14 = O=C(c1ccc(-n2cncn2)c([N+](=O)[O-])c1)*; X3 = Cc1nc(C(=O)*)nn1-c1ccc([N+](=O)[O-])cc1; X2 = CC(C)n1c(C(F)(F)F)nc2cc(C(=O)*)ccc21; X6 = O=C(COn1c(-c2ccccc2)nc2ccc(Cl)cc21)*; X10 = O=C(c1c(-c2ccccc2)nc2cccc(Cl)n12)*; X4 = Cc1nc(C(=O)*)nn1-c1cccc(C(F)(F)F)c1; X8 = COc1cc(-n2nc(C(=O)*)nc2C)c(Cl)cc1Cl; X11 = Cc1nc(C(=O)*)nn1-c1cc(Cl)cc(Cl)c1; Phe(4-F) = N[C@@H](Cc1ccc(F)cc1)C(=O)O; X13 = Cc1nc(C(=O)*)nn1-c1ccc(Cl)cc1Cl; X9 = O=C(COn1c(-c2ccccc2)nc2ccccc21)*; X5 = Cc1nc(C(=O)*)nn1-c1ccc(Cl)cc1; X7 = O=C(c1ccc2nc(-n3cccc3)sc2c1)*; X1 = Cc1nc(C(=O)*)nn1-c1ccc(F)cc1; X12 = O=C(c1ccc(N2CCNC2=S)cc1)*

Assay [1] concerns the target T1, CDK2/cyclin A (Homo sapiens, UniProt P20248). As to the kind of experiment: Competitive binding assay (fluorescence polarisation, fluorescein tracer peptide). The settings on record: purified recombinant human CDK2/cyclin A; tracer fluorescein-Ahx-His-Ala-Lys-Arg-Arg-Leu-Ile-Phe-NH2; 1 h room temperature; read-out: Inhibitory activity IC50 ± SD, Competitive binding assay. On the procedure: Competitive Binding Assay
This assay was performed using half-area black 96-well microtitre plates. To each well were added: 10 μL assay buffer (25 mM HEPES pH 7, 10 mM NaCl, 0.01% Nonidet P-40, 1 mM dithiothreitol), 10 μL test compound solution (in 10% aq DMSO), 10 μL CDK2/cyclin A (ca. 2 μg purified recombinant human kinase complex) in assay buffer, and 10 μL tracer peptide solution (150 nM fluorescein-Ahx-His-Ala-Lys-Arg-Arg-Leu-Ile-Phe-NH2; refer McInnes, C. et al., 2003, Curr. Med. Chem. Anti-Cancer Agents, 3, 57; Atkinson, G. E. et al., 2002, Bioorg. Med. Chem. Lett., 12, 2501) in assay buffer. After incubation with shaking for 1 h at room temperature, fluorescence polarisation at 485-520 nm was measured using a Tecan Ultra reader. Half-maximal inhibition (IC50) was calculated from dose—response curves.
(In fluorescence polarisation assays a small probe gives low polarisation when free and higher when bound to something large.)

For assay [2], the target named is T1, CDK2/cyclin A. Put plainly: Functional kinase assay (phosphorylation of GST-pRb(773-928)). The assay is classed as biochemical. As to conditions: recombinant human CDK2/cyclin A; GST-pRb(773-928) substrate; 100 μM ATP; 30 min at 30° C.; read-out: Inhibitory activity IC50 ± SD, Functional kinase assay. Here is the method: CDK2/cyclin A kinase assays (phosphorylation of natural retinoblastoma protein (pRb)) were performed in 96-well plates using recombinant proteins. To each well were added: 10 μL assay buffer (50 mM HEPES pH 7.4, 20 mM β-glycerophosphate, 5 mM EGTA, 2 mM dithiothreitol, 1 mM NaVO3, and 20 mM MgCl2), 5 μL GST-pRb(773-928) substrate stock solution,10 μL test compound solution, 10 μL (2-5 μg protein) of purified recombinant human CDK2/cyclin A stock. The reaction was initiated by addition of 10 μL/well Mg/ATP mix (15 mM MgCl2, 100 μM ATP with 30-50 kBq per well of [γ-^32P]-ATP) and mixtures were incubated with shaking for 30 min at 30° C. Reactions were stopped on ice, followed by addition of 5 μL/well of glutathione-Sepharose 4B (Amersham Biosciences) and further incubation with shaking for 30 min at room temperature. The mixtures were then filtered on Whatman GF/C filterplates and washed 4 times with 0.2 mL/well of 50 mM HEPES containing 1 mM ATP. Plates were dried, sealed, and scintillant (Microscint 40) was added. Incorporated radioactivity was measured using a scintillation counter (TopCount, Packard Instruments, Pangbourne, Berks, UK). Half-maximal inhibition (IC50) was calculated from dose—response curves.

With `CC(C)C[C@H](NC(=O)[C@H](CCCNC(=N)N)NC(=O)c1c(-c2ccccc2)nc2cccc(Cl)n12)C(=O)N[C@@H](CC(N)=O)C(=O)N[C@@H](Cc1ccc(F)cc1)C(N)=O` [Compound 1] (X10-RLN[Phe(4-F)]-NH2), the IC50 (as a rule, the concentration that inhibits the measured activity by half) in assay [1] came out at 12 ± 2 µM; in assay [2] it was 53 ± 25 µM.
In the case of `COc1cc(-n2nc(C(=O)N[C@@H](CCCNC(=N)N)C(=O)N[C@@H](CC(C)C)C(=O)N[C@@H](CC(N)=O)C(=O)N[C@@H](Cc3ccc(F)cc3)C(N)=O)nc2C)c(Cl)cc1Cl` [Compound 2] (X8-RLN[Phe(4-F)]-NH2), the IC50 in assay [1] was found to be 0.93 ± 0.05 µM; in assay [2] it was 11 ± 7 µM.
In the same order, the values of `Cc1nc(C(=O)N[C@@H](CCCNC(=N)N)C(=O)N[C@@H](CC(C)C)C(=O)N[C@@H](CC(N)=O)C(=O)N[C@@H](Cc2ccc(F)cc2)C(N)=O)nn1-c1ccc(Cl)cc1` [Compound 3] (X5-RLN[Phe(4-F)]-NH2) are 4.1 ± 1.3 µM and 4.3 ± 2.1 µM.
In the same order, the values of `Cc1nc(C(=O)N[C@@H](CCCNC(=N)N)C(=O)N[C@@H](CC(C)C)C(=O)N[C@@H](CC(N)=O)C(=O)N[C@@H](Cc2ccc(F)cc2)C(N)=O)nn1-c1ccc(Cl)cc1Cl` [Compound 4] (X13-RLN[Phe(4-F)]-NH2) are 3.6 ± 0.6 µM and 6.4 ± 0.3 µM.
For `CC(C)C[C@H](NC(=O)[C@H](CCCNC(=N)N)NC(=O)c1ccc(N2CCNC2=S)cc1)C(=O)N[C@@H](CC(N)=O)C(=O)N[C@@H](Cc1ccc(F)cc1)C(N)=O` [Compound 5] (X12-RLN[Phe(4-F)]-NH2) the same measures were 5.8 ± 1.6 µM and 19 ± 3 µM.
On to `Cc1nc(C(=O)N[C@@H](CCCNC(=N)N)C(=O)N[C@@H](CC(C)C)C(=O)N[C@@H](CC(N)=O)C(=O)N[C@@H](Cc2ccc(F)cc2)C(N)=O)nn1-c1ccc(F)cc1` [Compound 6] (X1-RLN[Phe(4-F)]-NH2), for which the 50% inhibitory concentration (IC50) in assay [1] stood at 6.1 ± 1.2 µM; in assay [2], 4.4 ± 0.8 µM.
In the same order, the values of `Cc1nc(C(=O)N[C@@H](CCCNC(=N)N)C(=O)N[C@@H](CC(C)C)C(=O)N[C@@H](CC(N)=O)C(=O)N[C@@H](Cc2ccc(F)cc2)C(N)=O)nn1-c1ccc([N+](=O)[O-])cc1` [Compound 7] (X3-RLN[Phe(4-F)]-NH2) are 6.4 ± 1.8 µM and 5.4 ± 0.9 µM.
For `CC(C)C[C@H](NC(=O)[C@H](CCCNC(=N)N)NC(=O)c1ccc(-n2cncn2)c([N+](=O)[O-])c1)C(=O)N[C@@H](CC(N)=O)C(=O)N[C@@H](Cc1ccc(F)cc1)C(N)=O` [Compound 8] (X14-RLN[Phe(4-F)]-NH2) the same measures were 28 ± 4 µM and 26 ± 5 µM.
For `CC(C)C[C@H](NC(=O)[C@H](CCCNC(=N)N)NC(=O)COn1c(-c2ccccc2)nc2ccccc21)C(=O)N[C@@H](CC(N)=O)C(=O)N[C@@H](Cc1ccc(F)cc1)C(N)=O` [Compound 9] (X9-RLN[Phe(4-F)]-NH2) the same measures were 15 ± 2 µM and 37 ± 6 µM.
Take `Cc1nc(C(=O)N[C@@H](CCCNC(=N)N)C(=O)N[C@@H](CC(C)C)C(=O)N[C@@H](CC(N)=O)C(=O)N[C@@H](Cc2ccc(F)cc2)C(N)=O)nn1-c1cc(Cl)cc(Cl)c1` [Compound 10] (X11-RLN[Phe(4-F)]-NH2): the IC50 amounted to 2.1 ± 0.2 µM in assay [1] and 3.7 ± 0.2 µM in assay [2].
For `CC(C)C[C@H](NC(=O)[C@H](CCCNC(=N)N)NC(=O)COn1c(-c2ccccc2)nc2ccc(Cl)cc21)C(=O)N[C@@H](CC(N)=O)C(=O)N[C@@H](Cc1ccc(F)cc1)C(N)=O` [Compound 11] (X6-RLN[Phe(4-F)]-NH2) the same measures were 12 ± 2 µM and 30 ± 16 µM.
In the same order, the values of `CC(C)C[C@H](NC(=O)[C@H](CCCNC(=N)N)NC(=O)c1ccc2nc(-n3cccc3)sc2c1)C(=O)N[C@@H](CC(N)=O)C(=O)N[C@@H](Cc1ccc(F)cc1)C(N)=O` [Compound 12] (X7-RLN[Phe(4-F)]-NH2) are 4.8 ± 0.4 µM and 15.3 ± 3.1 µM.
In the same order, the values of `CC(C)C[C@H](NC(=O)[C@H](CCCNC(=N)N)NC(=O)c1ccc2c(c1)nc(C(F)(F)F)n2C(C)C)C(=O)N[C@@H](CC(N)=O)C(=O)N[C@@H](Cc1ccc(F)cc1)C(N)=O` [Compound 13] (X2-RLN[Phe(4-F)]-NH2) are 2.6 ± 0.4 µM and 21.1 ± 7 µM.
Regarding `Cc1nc(C(=O)N[C@@H](CCCNC(=N)N)C(=O)N[C@@H](CC(C)C)C(=O)N[C@@H](CC(N)=O)C(=O)N[C@@H](Cc2ccc(F)cc2)C(N)=O)nn1-c1cccc(C(F)(F)F)c1` [Compound 14] (X4-RLN[Phe(4-F)]-NH2), the IC50 was 2.8 ± 0.42 µM in assay [1] and 3.65 ± 0.92 µM in assay [2].
Take `Cc1cc(NC(=O)C2CCCCC2C(=O)N[C@@H](CC(C)C)C(=O)N[C@@H](CC(N)=O)C(=O)N[C@@H](Cc2ccc(F)cc2)C(N)=O)no1` (stereo partly shown) [Compound 15]: the results for the IC50 in assay [1] and in assay [2] were 219 ± 10 µM and 87 ± 14 µM, respectively.
In the same order, the values of `CC(C)C[C@H](NC(=O)[C@H](CCCNC(=N)N)NC(=O)[C@@H](N)CCCNC(=N)N)C(=O)Nc1cccc(Oc2ccccc2)c1` [Compound 24] are 56.9 ± 1.9 µM and 21.9 ± 4.9 µM.
In the same order, the values of `CC(C)C[C@H](NC(=O)[C@H](CCCNC(=N)N)NC(=O)[C@@H](N)CCCNC(=N)N)C(=O)Nc1cccc(OCc2ccccc2)c1` [Compound 25] are 35 ± 2.03 µM and 29.8 ± 12 µM.
With `CC(C)C[C@H](NC(=O)[C@H](CCCNC(=N)N)NC(=O)[C@@H](N)CCCNC(=N)N)C(=O)NCc1cccc(Oc2ccccc2)c1` [Compound 26], the IC50 is 4.7 ± 0.7 µM in assay [1] and 8.81 ± 1.08 µM in assay [2].
On to `CC(C)C[C@@H](CNc1cccc(Oc2ccccc2)c1)NC(=O)[C@H](CCCNC(=N)N)NC(=O)[C@@H](N)CCCNC(=N)N` [Compound 29], for which the IC50 was 22.7 ± 2.72 µM in assay [1] and 8.55 ± 2.11 µM in assay [2].
For `CC(C)C[C@@H](CNc1cccc(OCc2ccccc2)c1)NC(=O)[C@H](CCCNC(=N)N)NC(=O)[C@@H](N)CCCNC(=N)N` [Compound 30] the same measures were 58.2 ± 3.82 µM and 8.37 ± 4.24 µM.
